Measurements taken from patent US7342026B2, “Substituted quinolines for the treatment of protozoa and retrovirus co-infections” (priority 2001, dated 2008).
Values after ≈ are worked out from the molar mass of the structure shown. Where two headings read alike, the source gives them in different places. Marks after values point to notes of the source that are not given here.

What was measured:
[1] = system: amastigotes of Leishmania amazonensis; test: Amastigotes of Leishmania amazonensis in infected macrophages (leishmanicidal activity); assay type: cell-based; settings: for L. amazonensis IC100: 100% inhibitory concentration, intracellular amastigotes in BALB/c macrophages, 30 hours after addition; for activity on Leishmania amazonensis (in words): comment on Table II
Protocol: The strain of Leishmania amazonensis is maintained by successive passages in “nude” mice (nu/nu). The amastigotes are isolated from the lesions developed on the footpads, and purified according to the method described by Antoine et al. (Parasitology, 1989, 99: 1).
The leishmanicidal activity of the quinolines is determined 30 hours after addition of the solutions of substituted quinolines. It is based on a more or less large, or even complete, decrease, firstly, in the size of the parasitophorous vacuoles and, secondly, in the number of live intracellular amastigotes.

[2] = system: macrophages; test: Cytotoxicity on macrophages; assay type: cell-based, BALB/c mice
Protocol: The macrophages, which will be used as host cells for the leishmania, are obtained after multiplication and differentiation of medullary precursors from BALB/c mice. This culture is prepared in the presence of supernatant from a conditioned line of fibroblasts L-929, and source of “Macrophage Colony Stimulating Factor”. After culturing for 5 days on a hydrophobic support, the adherent macrophages are recovered and then distributed in flat-bottomed 96-well plates for cell culture, in a proportion of 4×10^4 macrophages per well. The macrophages are then infected with purified amastigotes (4 parasites per macrophage) and incubated at 34° C. for 24 hours to allow development of parasitophorous vacuoles and multiplication of parasites. Under these conditions, more than 95% of the macrophages are infected.
The solutions of the substituted quinolines to be tested are prepared in DMSO before being added, at various concentrations, to the infected macrophage cultures.
The results obtained with the substituted quinolines, assigned Nos. 1, 2, 4, 6 to 11, 13 to 20, 23 to 34, 37 and 38 in Table I, are given in Table II below as regards their activity on the amastigotes of Leishmania amazonensis, of Leishmania donovani and of Leishmania infantum, and also their cytotoxicity with respect to the macrophages.

[3] = system: Leishmania infantum (MHOM/FR/91/LEM2259V); test: Balb/c mice infected with visceral leishmaniasis (Leishmania infantum); assay type: in vivo; settings: 10 days, quinolines oral 25 mg/kg/day, Glucantime subcutaneous 100 mg/kg/day; for Number of parasites in the liver per gram / Number of parasites in the spleen per gram: n=8; for % reduction in the number of parasites in the liver / % reduction in the number of parasites in the spleen: versus without treatment
Protocol: b) Tests Carried on Laboratory Animals Infected with Visceral Leishmaniasis (Leishmania infantum): 1/Laboratory Animals and Parasites
The Balb/c mice were infected with Leishmania infantum parasites at the promastigote stage (reference: MHOM/FR/91/LEM2259V), a strain isolated from a patient carrying AIDS. This strain is maintained in Schneider's drosophila culture medium (Gibco, USA) supplemented with 20% of fetal calf serum. The infectious promastigotes are cultured for 7 days and then counted. Each mouse is then infected intravenously with 0.2 ml of culture medium containing 10^7 promastigotes.
Counting of amastigotes forms in the liver and spleen.
After the treatments have been stopped and the animals sacrificed, the viscera, liver and spleen are weighed and collected in a Petri dish. Each organ is mounted several times on a degreased glass slide which, fixed and stained by the May-Grünwald-Giemsa technique, makes it possible to determine the number of amastigote forms per 500 nucleated cells.
The results are expressed in Table VI.

[4] = system: circulating forms of Trypanosoma brucei (S427 strain); test: microbe, parasite or virus in culture; assay type: cell-based; settings: for IC50: read-out: T. brucei IC50; for activity on Trypanosoma brucei (in words): comment on Table III
Protocol: d) Tests on the Circulating Forms of Trypanosoma brucei
The circulating forms of Trypanosoma brucei are cultured in MEM medium (minimum essential medium; GIBCO-BRL, No. 072-1100) to which Earle's salts have been added and supplemented with 1 mg/ml of glucose, 2.2 mg/ml of NaHCO3, 10 mM of Hepes, 2 mM of sodium pyruvate, 0.2 mM of 2-mercaptoethanol, 0.1 mM of hypoxanthine and 15% of inactivated horse serum.
The cultures are maintained at 37° C. in 24-well plates in a humid atmosphere (5% CO2-95% air) and the passages are carried out every 2 or 3 days at a density of 10^3 to 10^5 trypomastigotes per ml. The activity of the substituted quinolines is tested in triplicate in 96-well plates in which 10^3 parasites originating from an exponential growth phase are distributed per well, in the presence of the various solutions of substituted quinolines in a final volume of 200 μl. After culturing for 48 hours, the trypanocidal activity is assessed by counting, with a Neubauer cell, the number of live parasites per well.

[5] = system: amastigotes of Trypanosoma cruzi (Tulahuen strain); test: Amastigotes of Trypanosoma cruzi in peritoneal macrophages; assay type: cell-based; settings: for IC50: read-out: T. cruzi (amastigotes) IC50; for activity on Trypanosoma cruzi (in words): comment on Table III
Protocol: c) Tests on Amastigotes of Trypanosoma cruzi
Peritoneal macrophages from Balb/c mice are collected, washed in Dulbecco PBS and then distributed in 96-well plates in a proportion of 3×10^4 cells per 100 μl and per well, in RPMI-1640 medium supplemented with 10% FCS and antibiotics.
After 24 hours at 37° C., 10^5 trypomastigotes are added with serial 2-fold dilutions of the various substituted quinolines. The cultures are then incubated at 37° C. for 4 days in a humid atmosphere (5% CO2-95% air). After fixing, and then staining with Giemsa, the antiparasitic activity is assessed by counting the extracellular trypomastigotes and the intracellular amastigotes.

[6] = system: amastigotes of Leishmania infantum (MHOM/MA(BE)67); test: Amastigotes of Leishmania infantum (MHOM/MA(BE)67) in peritoneal macrophages; assay type: cell-based; settings: for IC50: Leishmania infantum, Peritoneal macrophage, in Mus musculus, 48 h, read-out: L. infantum (MHOM/MA (BE) 67) IC50; for activity on the MHOM/MA(BE)67 strain of Leishmania infantum (in words): comment on Table II
[7] = system: amastigotes of Leishmania infantum (IPZ229/1/89); test: microbe, parasite or virus in culture; assay type: cell-based; settings: for IC50: Leishmania infantum, Peritoneal macrophage, in Mus musculus, 48 h, read-out: L. infantum (IPZ229/1/89) IC50
Excerpt: (§1) b) Tests on Amastigotes of Leishmania donovani and Leishmania infantum
(§2) The Leishmania donovani and Leishmania infantum strains are maintained by successive passages in golden hamsters. The amastigotes are isolated from the spleens of the infected hamsters and brought into contact with the purified macrophages.
(§3) Twenty-four hours after intraperitoneal injection of Balb/c mice with a 2% starch solution, the peritoneal macrophages of these mice are collected, washed in Dulbecco PBS and then distributed in Lab-tek® culture chambers, in a proportion of 4×10^4 cells per 100 μl per well in RPMI-1640 medium supplemented with 10% of FCS and antibiotics. After 24 hours at 37° C. in a humid atmosphere (5% CO2), the macrophages are brought into contact with purified amastigotes (3 parasites per macrophage) in a final volume of 200 μl for 4 hours. The medium is then removed in order to eliminate the extracellular parasites, and replaced with 100 μl of fresh medium.
(§4) Twenty-four hours after the beginning of infection, the solutions of substituted quinolines prepared as described in paragraph a) above are added and the leishmanicidal activity is determined after 48 hours by counting the number of parasites still alive in the fixed and Giemsa-stained cells.

[8] = system: amastigotes of Leishmania donovani (MHOM/ET/67/L82); test: microbe, parasite or virus in culture; assay type: cell-based; settings: for IC50: Leishmania donovani, Peritoneal macrophage, in Mus musculus, 48 h, read-out: L. donovani IC50
Excerpt: as §1, §2, §3, §4

[9] = system: Leishmania amazonensis (IFLA/BR/67/PH8); settings: 15 days, quinolines oral 25 mg/kg/day, Glucantime subcutaneous 100 mg/kg (28 mg Sbv/kg); for Mean of the number of parasites in the lesion per gram / Weight of lesions (mean ± standard deviation): n=8; for % reduction in the number of parasites in the lesion: versus untreated controls
Excerpt: a) Tests Carried Out on Laboratory Animals Infected with Cutaneous Leishmaniasis (Leishmania amazonensis):
The experimental animals are male or female approximately 6- to 8-week-old Balb/c mice weighing 18-24 g, subsequently reared for reproduction in the animal house of the Instituto de Investigaciones en Ciencias de la Salud (IICS), Asuncion, Paraguay. Golden hamsters (Mesocricetus auratus) are used to maintain these strains and as reservoirs for L. amazonensis parasites.
The Balb/c mice are infected with Leishmania amazonensis parasites, at the amastigote stage of the reference strain IFLA/BR/67/PH8, subcutaneously in the ventral pad of the right rear foot, the left foot remaining as a control. The amount of amastigotes inoculated is 2×10^6 amastigotes in 50 μl of phosphate buffer saline (PBS) for L. amazonensis.
The treatments begin once the infection is well established, mainly in general 5 to 6 weeks after inoculation of the L. amazonensis amastigotes. The reference medicinal product chosen is Glucantime® or meglumine antimoniate from Aventis (France).
The untreated control mice are given 50 μl of a solution of Tween 80 with PBS.
Measurement of the lesion: the diameters of the lesions on the infected foot and on the control foot are measured using a micrometer with 1/10 mm graduations, once a week for the duration of the experiment. The first measurements begin 48 hours after inoculation of the parasites. Calculating the difference in the two measurements gives the thickness of the lesion.
The 5 ml of puree obtained are centrifuged twice. The layer containing the amastigotes is subjected to counting of the number of parasites using a Neubauer cell. Five counts are performed on each amastigote layer. The number of amastigote forms is determined using the Stauber formula which takes into account the weight of the lesion: A/N×W×coefficient of the Neubauer cell • A=number of amastigotes, N=number of nuclei W=weight of the lesion
The results are expressed by the calculation of the arithmetic mean of the diameters of the lesions measured once a week and, at the end of the protocol, after sacrifice of the mice, of the weights of the lesions and of the number of amastigotes. A Student's test (t-test) is used for the statistical analysis of all the data. The comparison is made between “control” groups with a “treatment” group per pair. A value of P<0.05 is considered to be statistically significant.

[10] = Trypanosoma cruzi, TULAHUEN, Peritoneal macrophage, in Mus musculus, 96 h
[11] = Balb/c peritoneal macrophages, 4 days
[12] = circulating forms, culturing for 48 hours

Molecule	L. amazonensis IC100 [1]	Cytotoxicity on macrophages ([2]; macrophages from BALB/c mice)	IC50 [5, 11]	IC50 [4, 12]	other results
C[Si](C)(C)C#Cc1ccc2ccccc2n1 [Example 1, 2-(2-quinolyl)trimethylsilylacetylene]	0.7812 µg/mL	6.25 µg/mL	–	–	–
OC/C=C/c1ccc2ccccc2n1 [Example 4, E-3-(2-quinolyl)prop-2-en-1-ol]	25 µg/mL	25 µg/mL	–	–	–
C#Cc1ccc2ccccc2n1 [Quinoline 1, 1-(2-quinolyl)acetylene]	–	–	–	–	Number of parasites in the liver per gram [3]: 1.8 × 10^7 c per gram; Number of parasites in the spleen per gram [3]: 2.2 × 10^6 b per gram; % reduction in the number of parasites in the liver [3]: −60.0%; % reduction in the number of parasites in the spleen [3]: −47.6%
C=Cc1ccc2ccccc2n1 [Quinoline 2, (2-quinolyl)ethylene]	3.12 µg/mL	6.25 µg/mL	–	–	IC50 ([4]; Trypanosoma brucei, 48 h): 13 µM; IC50 [5, 10]: 12 µM; IC50 [6]: > 32 µM; IC50 [7]: 1.3 µg/mL (≈ 8.38 µM); IC50 [8]: 1.2 to 2.8 µg/mL (≈ 7.73 to 18 µM)
Cc1ccc2nc(C=O)ccc2c1 [Quinoline 5]	–	–	> 32 µM	–	–
CC/C=C/c1ccc2ccccc2n1 [Quinoline 6, E-1-(2-quinolyl)butene]	6.25 µg/mL	25 µg/mL	> 32 µM	17 µM	Mean of the number of parasites in the lesion per gram [9]: 6.9 × 10^6 per gram; Weight of lesions (mean ± standard deviation) [9]: 0.101 ± 0.100 g; % reduction in the number of parasites in the lesion [9]: −73%
OC/C=C/c1ccc2ccccc2n1 [Quinoline 10]	–	–	4 µM	> 32 µM	L. amazonensis IC100 ([1]; listed as 10): 1.56 µg/mL; Cytotoxicity on macrophages ([2]; macrophages from BALB/c mice, listed as 10): 6.25 µg/mL
C/C=C/c1ccc2cccc(O)c2n1 [Quinoline 11]	50 µg/mL	50 µg/mL	19 µM	> 32 µM	–
CC(=O)Cc1ccc2ccccc2n1 [Quinoline 13]	25 µg/mL	25 µg/mL	> 32 µM	10 µM	–
CC(O)Cc1ccc2ccccc2n1 (stereo not drawn) [Quinoline 15]	–	–	> 32 µM	16 µM	–
CCC(O)c1ccc2ccccc2n1 (stereo not drawn) [Quinoline 17]	–	–	> 32 µM	3 µM	–
O=C(O)/C=C/c1ccc2ccccc2n1 [Quinoline 19]	12.5 µg/mL	12.5 µg/mL	–	–	–
CC(O)Cc1ccc2cccc(O)c2n1 (stereo not drawn) [Quinoline 22]	–	–	16 µM	16 µM	–
COC(=O)/C=C/c1ccc2ccccc2n1 [Quinoline 23, methyl E-3-(2-quinolyl)-2-propenoate]	12.5 µg/mL	–	–	–	activity on Leishmania amazonensis (in words) [1]: marked activity; IC50 ([4]; Trypanosoma brucei, 48 h): 16 µM; activity on Trypanosoma brucei (in words) [4]: less advantageous; IC50 [5, 10]: 15 µM; activity on Trypanosoma cruzi (in words) [5]: less advantageous; IC50 [6]: 26 µM; activity on the MHOM/MA(BE)67 strain of Leishmania infantum (in words) [6]: less advantageous; Number of parasites in the liver per gram [3]: 1.8 × 10^7 d per gram; Number of parasites in the spleen per gram [3]: 1.5 × 10^6 c, f per gram; % reduction in the number of parasites in the liver [3]: −60.0%; % reduction in the number of parasites in the spleen [3]: −64.3%; Cytotoxicity on macrophages ([2]; BALB/c, mouse): 50 µg/mL; IC50 [7]: 0.4 to 2.2 µg/mL (≈ 1.88 to 10.3 µM); activity on the IPZ229/1/89 strain of Leishmania infantum (in words) ([7]; comment on Table II): marked activity; IC50 [8]: 3.3 to 30 µg/mL (≈ 15.5 to 141 µM); activity on Leishmania donovani (in words) ([8]; comment on Table II): marked activity; Mean of the number of parasites in the lesion per gram [9]: 3.1 × 10^6 per gram; Weight of lesions (mean ± standard deviation) [9]: 0.059 ± 0.010 g; % reduction in the number of parasites in the lesion [9]: −88%**
Cl/C=C/C#Cc1ccc2ccccc2n1 [Quinoline 24]	10 to 25 µg/mL	–	–	–	–
CCCCC/C=C/c1ccc2ccccc2n1 [Quinoline 25]	12.5 µg/mL	25 µg/mL	11 µM	4 µM	activity on Leishmania amazonensis (in words) [1]: advantageous activity; activity on Trypanosoma brucei (in words) [4]: advantageous activity; activity on Trypanosoma cruzi (in words) [5]: advantageous activity; activity on the MHOM/MA(BE)67 strain of Leishmania infantum (in words) [6]: less active
COC(=O)/C=C/c1ccc2cc(C)ccc2n1 [Quinoline 27]	50 µg/mL	–	25 µM	–	–
BrC#Cc1ccc2ccccc2n1 [Quinoline 28]	12.5 µg/mL	12.5 µg/mL	> 32 µM	5 µM	–
Br/C=C/c1ccc2ccccc2n1 [Quinoline 29, E-1-bromo-2-(2-quinolyl)-ethene]	0.7812 µg/mL	3.12 µg/mL	–	–	IC50 ([4]; Trypanosoma brucei, 48 h): 1 µM; IC50 [5, 10]: < 0.5 µM; IC50 [6]: 2 µM
COC(=O)/C=C/C=C/c1ccc2ccccc2n1 [Quinoline 30]	12.5 µg/mL	25 µg/mL	26 µM	–	–
FC(Br)=Cc1ccc2ccccc2n1 [Quinoline 31]	25 µg/mL	25 µg/mL	–	–	–
CCCCCCCCC#Cc1ccc2ccccc2n1 [Quinoline 32]	12.5 µg/mL	12.5 µg/mL	–	–	–
c1ccc2nc(CCc3ccc4c(c3)OCO4)ccc2c1 [Quinoline 34]	50 µg/mL	25 µg/mL	15 µM	13 µM	–
C(=C\c1ccc2ccccc2n1)/c1ccc2ccccc2n1 [Quinoline 35]	–	–	> 32 µM	24 µM	–
BrC(Br)=Cc1ccc2ccccc2n1 [Quinoline 36]	–	–	21 µM	4 µM	–
meglumine antimoniate [Glucantime, reference compound]	–	–	–	–	Number of parasites in the liver per gram [3]: 1.6 × 10^7 a per gram; Number of parasites in the spleen per gram [3]: 4.4 × 10^6 per gram; % reduction in the number of parasites in the liver [3]: −65.3%; % reduction in the number of parasites in the spleen [3]: +6.0%; Mean of the number of parasites in the lesion per gram [9]: 7.2 × 10^5 per gram; Weight of lesions (mean ± standard deviation) [9]: 0.012 ± 0.010 g; % reduction in the number of parasites in the lesion [9]: −97%
